In PMC9150124, “Design of a Potent, Selective, and Brain-Penetrant Inhibitor of Wnt-Deactivating Enzyme Notum by Optimization of a Crystallographic Fragment Hit” (Journal of Medicinal Chemistry, 2022):
Converted amounts (≈) assume the structure as drawn. “And” between values parts separate entries of the source, which are not always exact repeats. Equal entries are not always repeated. Structures can show the parent of a compound that is named as a salt. Where two headings read alike, the source gives them in different places.

Experiments:
[1] = target: T1, human Notum (81–451 Cys330Ser) (Homo sapiens, UniProt Q6P988, C330S); test: Notum OPTS biochemical assay; settings: for IC50: mean
T1 construct: human Notum (81–451 Cys330Ser) as the enzyme; made in house
T1 sequence (Q6P988 81-451 C330S): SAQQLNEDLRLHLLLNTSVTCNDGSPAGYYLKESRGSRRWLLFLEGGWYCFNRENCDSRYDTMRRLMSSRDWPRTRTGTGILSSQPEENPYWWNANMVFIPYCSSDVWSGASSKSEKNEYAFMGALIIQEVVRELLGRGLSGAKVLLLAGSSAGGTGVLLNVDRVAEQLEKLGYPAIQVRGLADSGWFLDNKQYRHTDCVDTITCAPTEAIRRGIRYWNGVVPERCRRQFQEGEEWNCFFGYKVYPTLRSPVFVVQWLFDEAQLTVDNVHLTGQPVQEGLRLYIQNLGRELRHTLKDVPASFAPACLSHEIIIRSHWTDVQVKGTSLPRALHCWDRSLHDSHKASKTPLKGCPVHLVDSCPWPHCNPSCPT
Excerpt: The optimization of 6 to deliver this profile was directed at three principle areas of these hit structures: (1) aryl ring 7 (Table 1); (2) the C4 substituent on triazole 8 (Table 2); and (3) further fine-tuning of the triazole 9 (Table 3). […] This assay was used to establish SAR and to identify preferred leads for additional studies.
Methods have been described in detail elsewhere.[23]−[26] Representative concentration–response curves are provided in the Supporting Information.

Notum = target: T2, Notum (Homo sapiens, UniProt Q6P988); test: ABPP-TMT (FP-biotin) proteomic analysis in SW620 cells
T2 sequence (Q6P988 20-496): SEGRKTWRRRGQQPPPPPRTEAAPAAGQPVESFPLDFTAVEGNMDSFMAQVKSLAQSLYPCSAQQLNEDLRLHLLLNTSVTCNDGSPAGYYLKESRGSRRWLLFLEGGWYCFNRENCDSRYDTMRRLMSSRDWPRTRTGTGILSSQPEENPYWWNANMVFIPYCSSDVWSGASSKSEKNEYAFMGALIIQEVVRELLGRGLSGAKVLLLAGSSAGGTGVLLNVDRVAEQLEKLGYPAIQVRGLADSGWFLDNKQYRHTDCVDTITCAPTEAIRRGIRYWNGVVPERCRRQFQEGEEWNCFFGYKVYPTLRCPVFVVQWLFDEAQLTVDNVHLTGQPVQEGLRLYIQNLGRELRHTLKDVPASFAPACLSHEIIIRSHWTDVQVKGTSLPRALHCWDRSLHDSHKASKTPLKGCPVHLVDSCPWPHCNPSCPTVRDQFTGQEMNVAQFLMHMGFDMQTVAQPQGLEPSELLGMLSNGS

[2] = Aqueous solubility in PBS (pH 7.4); type: physicochemical; settings: for solubility: PBS pH 7.4, read-out: aq. solubility; for solubility thermodynamic: PBS, pH 7.4, n = 2, read-out: Thermodynamic Solubility @ RT, mean
Excerpt: Biosciences (Hyderabad, India) or WuXi AppTec (Shanghai, China).
Table S1: Representative assay protocol

in vitro [3] = settings: dog
P-gp (MDR1) = test: in vitro; settings: dog
MDR1 (P-gp) = test: in vitro; settings: dog
[4] = Stability in mouse liver microsomes; type: in vitro ADME; design: MLM Stability Cli mean: unit not given here; settings: for half-life: mouse, liver microsomes, read-out: MLM Stability t1/2
in vitro [5] = settings: pH 7.4
Method: G. Plasma protein binding (PPB):
Method: rapid equilibrium dialysis.
Test System Mouse Plasma (K2EDTA)
Test compound concentration 10 µM (mouse) or 2 µM (rat)

[6] = OPTS substrate, read-out: Notum IC50
[7] = SW620 conditioned media, 1e-8 M
[8] = SW620 conditioned media, 3e-8 M
[9] = SW620 conditioned media, 1e-7 M
[10] = SW620 conditioned media, 3e-7 M
[11] = SW620 conditioned media, 1e-6 M
[12] = SW620 conditioned media, 3e-6 M
[13] = SW620 conditioned media, 1e-5 M
[14] = MDCK-MDR1, MDCK-MDR1 AB Papp, apical to basal
[15] = MDCK-MDR1, MDCK-MDR1 BA Papp, basal to apical
[16] = MDCK-MDR1, MDR1-MDCKII A to B % Recovery
[17] = MDCK-MDR1, MDR1-MDCKII B to A % Recovery

CC(O)Cc1cn(-c2ccc(Cl)c(C(F)(F)F)c2Cl)nn1 (centres unmarked) [8d, 1-(1-(2,4-Dichloro-3-(trifluoromethyl)phenyl)-1H-1,2,3-triazol-4-yl)propan-2-ol]
IC50 ([1]; Notum IC50, OPTS substrate): > 1000 nM | IC50 [1, 6]: 1700 ± 1400 nM

OC1(Cc2cn(-c3ccc(Cl)c(C(F)(F)F)c3Cl)nn2)COC1 [8e, 3-((1-(2,4-Dichloro-3-(trifluoromethyl)phenyl)-1H-1,2,3-triazol-4-yl)methyl)oxetan-3-ol]
IC50 [1, 6]: 7400 ± 1100 nM

O=C(O)c1cn(-c2ccc(Cl)c(C(F)(F)F)c2Cl)nn1 [8f, 1-(2,4-Dichloro-3-(trifluoromethyl)phenyl)-1H-1,2,3-triazole-4-carboxylic Acid]
IC50 [1, 6]: 31 ± 10 nM

NC(=O)c1cn(-c2ccc(Cl)c(C(F)(F)F)c2Cl)nn1 [8g, 1-(2,4-Dichloro-3-(trifluoromethyl)phenyl)-1H-1,2,3-triazole-4-carboxamide]
IC50 [1, 6]: 1200 ± 300 nM

CNC(=O)c1cn(-c2ccc(Cl)c(C(F)(F)F)c2Cl)nn1 [8h, 1-(2,4-Dichloro-3-(trifluoromethyl)phenyl)-N-methyl-1H-1,2,3-triazole-4-carboxamide]
IC50 [1, 6]: 2300 ± 220 nM

NCc1cn(-c2ccc(Cl)c(C(F)(F)F)c2Cl)nn1 [8i, (1-(2,4-Dichloro-3-(trifluoromethyl)phenyl)-1H-1,2,3-triazol-4-yl)methanamine Hydrochloride]
NOTUM intensity normalised to DMSO (Notum; [7]): 1.002 | NOTUM intensity normalised to DMSO (Notum; [8]): 0.8137 | NOTUM intensity normalised to DMSO (Notum; [9]): 0.7326 | NOTUM intensity normalised to DMSO (Notum; [10]): 0.3649 | NOTUM intensity normalised to DMSO (Notum; [11]): 0.1945 | NOTUM intensity normalised to DMSO (Notum; [12]): 0.1349 | NOTUM intensity normalised to DMSO (Notum; [13]): 0.07262 | NOTUM intensity normalised to DMSO (Notum; SW620 lysate, 1e-8 M): 1.016 | NOTUM intensity normalised to DMSO (Notum; SW620 lysate, 3e-8 M): 0.7635 | NOTUM intensity normalised to DMSO (Notum; SW620 lysate, 1e-7 M): 0.7415 | NOTUM intensity normalised to DMSO (Notum; SW620 lysate, 3e-7 M): 0.5781 | NOTUM intensity normalised to DMSO (Notum; SW620 lysate, 1e-6 M): 0.4746 | NOTUM intensity normalised to DMSO (Notum; SW620 lysate, 3e-6 M): 0.3389 | NOTUM intensity normalised to DMSO (Notum; SW620 lysate, 1e-5 M): 0.2883 | IC50 [1, 6]: 910 ± 120 nM

COCc1cn(-c2ccc(Cl)c(C(F)(F)F)c2Cl)nn1 [8j, 1-(2,4-Dichloro-3-(trifluoromethyl)phenyl)-4-(methoxymethyl)-1H-1,2,3-triazole]
IC50 [1, 6]: 200 ± 50 nM

Cc1cn(-c2ccc(Cl)c(C(F)(F)F)c2Cl)nn1 [8k, 1-(2,4-Dichloro-3-(trifluoromethyl)phenyl)-4-methyl-1H-1,2,3-triazole]
reduction in potency vs 7y [1]: 12 fold | IC50 [1, 6]: 110 ± 40 nM

FC(F)(F)c1c(Cl)ccc(-n2cnnc2)c1Cl [9a, 4-(2,4-Dichloro-3-(trifluoromethyl)phenyl)-4H-1,2,4-triazole]
IC50 [1, 6]: 1300 ± 210 nM

FC(F)(F)c1c(Cl)ccc(-n2cnnn2)c1Cl [9b, 1-(2,4-Dichloro-3-(trifluoromethyl)phenyl)-1H-tetrazole]
IC50 [1, 6]: 140 ± 20 nM

FC(F)(F)c1c(Cl)cnc(-n2ccnn2)c1Cl [9c, 3,5-Dichloro-2-(1H-1,2,3-triazol-1-yl)-4-(trifluoromethyl)pyridine]
solubility [2]: 400 µg/mL and 1400 µM | solubility thermodynamic [2]: 399 µg/mL (≈ 1410 µM) | Papp (in vitro [3]; [14]): 2 ×10⁻⁶ cm/s | Papp (in vitro [3]; [15]): 5 ×10⁻⁶ cm/s | Papp (P-gp (MDR1); [14]): 1.74 ×10⁻⁶ cm/s | Papp (P-gp (MDR1); [15]): 4.88 ×10⁻⁶ cm/s | efflux ratio (P-gp (MDR1); MDCK-MDR1, MDCK-MDR1 efflux ratio (ER)): 2.81 | recovery (MDR1 (P-gp); [16]): 5.93% | recovery (MDR1 (P-gp); [17]): 65.2% | IC50 [1, 6]: 7.5 ± 1.6 nM | MLM Cli [4]: 4.9/ND μL/min/mg protein | MLM Stability Cli mean ([4]; Table S4): 4.94 | half-life ([4]; Table S4): 2 h

CC(=O)CC(c1ccccc1)c1c(O)c2ccccc2oc1=O (centres unmarked) [Warfarin, reference compound]
recovery at 4 h, 2 µM (in vitro [5]; SD, rat): 100% | fraction unbound at 4 h, 2 µM (in vitro [5]; SD, rat, plasma): 0.0063 | recovery at 5 h, 10 µM (in vitro [5]; mouse): 103% | Plasma protein binding (PPB), % bound (in vitro [5]; mouse, plasma, 5 h, 10 µM): 95.71% | fraction unbound at 5 h, 10 µM (in vitro [5]; mouse, plasma): 0.0429

O=C(O)CSc1ncnc2c(C3CC3)c(Cl)sc12 [compound 1, LP-922056, reference compound]
NOTUM intensity normalised to DMSO (Notum; [7]): 1.677 | NOTUM intensity normalised to DMSO (Notum; [8]): 1.111 | NOTUM intensity normalised to DMSO (Notum; [9]): 1.2088 | NOTUM intensity normalised to DMSO (Notum; [10]): 0.5634 | NOTUM intensity normalised to DMSO (Notum; [11]): 0.3108 | NOTUM intensity normalised to DMSO (Notum; [12]): 0.1718 | NOTUM intensity normalised to DMSO (Notum; [13]): 0.112 | NOTUM intensity normalised to DMSO (Notum; SW620 lysate, 1e-8 M): 0.811 | NOTUM intensity normalised to DMSO (Notum; SW620 lysate, 3e-8 M): 0.6714 | NOTUM intensity normalised to DMSO (Notum; SW620 lysate, 1e-7 M): 0.5739 | NOTUM intensity normalised to DMSO (Notum; SW620 lysate, 3e-7 M): 0.495 | NOTUM intensity normalised to DMSO (Notum; SW620 lysate, 1e-6 M): 0.3711 | NOTUM intensity normalised to DMSO (Notum; SW620 lysate, 3e-6 M): 0.4727 | NOTUM intensity normalised to DMSO (Notum; SW620 lysate, 1e-5 M): 0.5374

[2H]c1nnn(-c2ccc(Cl)c(C(F)(F)F)c2Cl)c1[2H] [d2-8l, 1-(2,4-Dichloro-3-(trifluoromethyl)phenyl)-1H-1,2,3-triazole-4,5-d2]
solubility [2]: 44 µg/mL and 155 µM | solubility thermodynamic [2]: 44 µg/mL (≈ 155 µM) | Papp (in vitro [3]; [14]): 48 ×10⁻⁶ cm/s | Papp (in vitro [3]; [15]): 35 ×10⁻⁶ cm/s | Papp (P-gp (MDR1); [14]): 47.8 ×10⁻⁶ cm/s | Papp (P-gp (MDR1); [15]): 35.4 ×10⁻⁶ cm/s | recovery (MDR1 (P-gp); [16]): 102% | recovery (MDR1 (P-gp); [17]): 111% | MLM Cli [4]: 5.4 μL/min/mg protein and 5.4/ND μL/min/mg protein | half-life ([4]; Table S4): 2.15 h
